Laboratory results as given in US20240287042A1, “NOVEL COMPOUND HAVING INHIBITORY ACTIVITY AGAINST PENDRIN, AND PHARMACEUTICAL USES THEREOF” (UIF (University Industry Foundation), Yonsei University, priority 2021, published 2024).

What was measured:
human WT CFTR = molecular target: T1, human WT CFTR (Homo sapiens, UniProt P13569); assay: CFTR I− transport activity, YFP fluorescence, forskolin-activated; format: cell-based; settings: for Effect on CFTR activity: 100 μM
T1 construct: expressed in transfected cells
Description: (§1) Chinese hamster ovary (CHO)-K1 cells or LN-215 cells were cultured in DMEM medium containing 10% fetal bovine serum (FBS), 100 units/ml of penicillin and 100 μg/ml streptomycin. CHO-K1 cells or LN-215 cells were stably transfected with pcDNA3.1 encoding the halide sensor YFP-H148Q/I152L/F46L and human wild-type (WT)-SLC26A9. Fisher rat thyroid (FRT) cells stably transfected with YFP-H148Q/I152L/F46L and human wild type (WT)-CFTR or human wild type (WT)-ANO1 were cultured in DMEM/F-12 medium containing 10% fetal bovine serum (FBS), 100 units/ml of penicillin, and 100 μg/ml of streptomycin.
LN-215 cells expressing human WT SLC26A9 and YFP-F46L/H148Q/I152L, and FRT cells expressing human WT CFTR or ANO1 and YFP-F46L/H148Q/I152L were plated in 96-well microplates at a density of 2×10^4 cells per well, and cultured for 48 hours. […] After culturing at 37° C. for 10 minutes, the 96-well plate was located on the FLUOstar Omega Microplate Reader (BMG Labtech, Ortenberg, Germany) for a fluorescence assay. For assay of the activity of […], fluorescence was recorded continuously (400 ms per point) for 1 second (baseline), whereby each well was assayed individually for SLC26A9-mediated I-influx. Then, 50 μL of NaI-substituted HEPES buffered solution (replacing NaCl with NaI) was added using a liquid injector at 1 second, and YFP fluorescence was recorded for 6 seconds. For assay of the activity of CFTR, fluorescence was recorded continuously (400 ms per point) for 2 seconds (baseline), whereby each well was assayed individually for CFTR-mediated I^− influx. Then, 50 μL of NaI-substituted HEPES buffered solution (replacing NaCl with NaI) was added using a liquid injector at 2 second, and YFP fluorescence was recorded for 8 seconds. For assay of the activity of ANO1, fluorescence was recorded continuously (400 ms per point) for 1 second (baseline), whereby each well was assayed individually for ANO1-mediated I^− influx. […] The initial iodide influx rate was determined from the initial slope of fluorescence by nonlinear regression, after the injection of iodide. […]

human WT ANO1 = molecular target: T2, human WT ANO1 (Homo sapiens, UniProt Q5XXA6); assay: ANO1 I− transport activity, YFP fluorescence in FRT cells, ATP-activated; format: cell-based
T2 construct: expressed in transfected cells
T2 sequence (Q5XXA6 1-986): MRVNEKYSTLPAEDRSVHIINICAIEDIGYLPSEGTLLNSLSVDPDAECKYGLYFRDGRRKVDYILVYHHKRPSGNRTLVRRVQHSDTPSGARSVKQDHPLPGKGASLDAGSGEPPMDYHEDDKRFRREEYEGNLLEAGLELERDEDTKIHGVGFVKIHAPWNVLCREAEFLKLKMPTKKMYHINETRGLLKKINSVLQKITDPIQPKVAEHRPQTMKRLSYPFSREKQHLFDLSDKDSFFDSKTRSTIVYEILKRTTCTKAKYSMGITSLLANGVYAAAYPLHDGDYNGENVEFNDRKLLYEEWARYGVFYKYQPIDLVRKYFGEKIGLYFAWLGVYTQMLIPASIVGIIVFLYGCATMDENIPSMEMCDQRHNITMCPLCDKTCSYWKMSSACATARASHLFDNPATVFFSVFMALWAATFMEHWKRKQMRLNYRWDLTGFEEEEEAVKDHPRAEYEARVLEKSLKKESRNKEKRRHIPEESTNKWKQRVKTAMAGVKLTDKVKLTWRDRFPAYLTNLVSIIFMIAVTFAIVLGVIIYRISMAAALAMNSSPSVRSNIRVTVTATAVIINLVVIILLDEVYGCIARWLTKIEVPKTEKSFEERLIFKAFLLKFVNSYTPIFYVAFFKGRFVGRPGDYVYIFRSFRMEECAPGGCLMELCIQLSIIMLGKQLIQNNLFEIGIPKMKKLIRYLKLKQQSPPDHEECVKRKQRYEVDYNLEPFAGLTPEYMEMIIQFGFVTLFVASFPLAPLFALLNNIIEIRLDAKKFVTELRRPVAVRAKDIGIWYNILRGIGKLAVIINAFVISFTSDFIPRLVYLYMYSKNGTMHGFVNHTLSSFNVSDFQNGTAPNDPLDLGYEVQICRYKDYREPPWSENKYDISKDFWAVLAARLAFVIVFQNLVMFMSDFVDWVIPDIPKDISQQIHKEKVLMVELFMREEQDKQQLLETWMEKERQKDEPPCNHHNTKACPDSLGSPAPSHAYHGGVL
Description: as §1
LN-215 cells expressing human WT SLC26A9 and YFP-F46L/H148Q/I152L, and FRT cells expressing human WT CFTR or ANO1 and YFP-F46L/H148Q/I152L were plated in 96-well microplates at a density of 2×10^4 cells per well, and cultured for 48 hours. […] After culturing at 37° C. for 10 minutes, the 96-well plate was located on the FLUOstar Omega Microplate Reader (BMG Labtech, Ortenberg, Germany) for a fluorescence assay. For assay of the activity of […], fluorescence was recorded continuously (400 ms per point) for 1 second (baseline), whereby each well was assayed individually for SLC26A9-mediated I-influx. Then, 50 μL of NaI-substituted HEPES buffered solution (replacing NaCl with NaI) was added using a liquid injector at 1 second, and YFP fluorescence was recorded for 6 seconds. […]

CHO-K1 cells = assay: Cell viability, MTS colorimetric assay; format: cell-based, Chinese hamster; settings: 24 hours; for Cytotoxicity: 30 μM; for Change in survival rate: 100 μM
Description: Chinese hamster ovary (CHO)-K1 cells were cultured in DMEM medium containing 10% fetal bovine serum (FBS), 100 units/ml of penicillin and 100 μg/ml streptomycin.
The cell viability was measured using the CellTiter 96® AQueous One Solution cell proliferation assay kit (Promega, Madison, WI, USA). CHO-K1 cells were cultured with medium supplemented with 10% FBS in 96-well plates for 24 hours, and then compounds or vehicle were treated in the medium, and after 24 hours, the medium was completely removed, and the MTS assay was performed as recommended in the supplier's protocol. The absorbance of Formazan was measured at a wavelength of 490 nm using an Infinite M200 microplate reader (Tecan, Austria).

T1 sequence (P13569 whole entry): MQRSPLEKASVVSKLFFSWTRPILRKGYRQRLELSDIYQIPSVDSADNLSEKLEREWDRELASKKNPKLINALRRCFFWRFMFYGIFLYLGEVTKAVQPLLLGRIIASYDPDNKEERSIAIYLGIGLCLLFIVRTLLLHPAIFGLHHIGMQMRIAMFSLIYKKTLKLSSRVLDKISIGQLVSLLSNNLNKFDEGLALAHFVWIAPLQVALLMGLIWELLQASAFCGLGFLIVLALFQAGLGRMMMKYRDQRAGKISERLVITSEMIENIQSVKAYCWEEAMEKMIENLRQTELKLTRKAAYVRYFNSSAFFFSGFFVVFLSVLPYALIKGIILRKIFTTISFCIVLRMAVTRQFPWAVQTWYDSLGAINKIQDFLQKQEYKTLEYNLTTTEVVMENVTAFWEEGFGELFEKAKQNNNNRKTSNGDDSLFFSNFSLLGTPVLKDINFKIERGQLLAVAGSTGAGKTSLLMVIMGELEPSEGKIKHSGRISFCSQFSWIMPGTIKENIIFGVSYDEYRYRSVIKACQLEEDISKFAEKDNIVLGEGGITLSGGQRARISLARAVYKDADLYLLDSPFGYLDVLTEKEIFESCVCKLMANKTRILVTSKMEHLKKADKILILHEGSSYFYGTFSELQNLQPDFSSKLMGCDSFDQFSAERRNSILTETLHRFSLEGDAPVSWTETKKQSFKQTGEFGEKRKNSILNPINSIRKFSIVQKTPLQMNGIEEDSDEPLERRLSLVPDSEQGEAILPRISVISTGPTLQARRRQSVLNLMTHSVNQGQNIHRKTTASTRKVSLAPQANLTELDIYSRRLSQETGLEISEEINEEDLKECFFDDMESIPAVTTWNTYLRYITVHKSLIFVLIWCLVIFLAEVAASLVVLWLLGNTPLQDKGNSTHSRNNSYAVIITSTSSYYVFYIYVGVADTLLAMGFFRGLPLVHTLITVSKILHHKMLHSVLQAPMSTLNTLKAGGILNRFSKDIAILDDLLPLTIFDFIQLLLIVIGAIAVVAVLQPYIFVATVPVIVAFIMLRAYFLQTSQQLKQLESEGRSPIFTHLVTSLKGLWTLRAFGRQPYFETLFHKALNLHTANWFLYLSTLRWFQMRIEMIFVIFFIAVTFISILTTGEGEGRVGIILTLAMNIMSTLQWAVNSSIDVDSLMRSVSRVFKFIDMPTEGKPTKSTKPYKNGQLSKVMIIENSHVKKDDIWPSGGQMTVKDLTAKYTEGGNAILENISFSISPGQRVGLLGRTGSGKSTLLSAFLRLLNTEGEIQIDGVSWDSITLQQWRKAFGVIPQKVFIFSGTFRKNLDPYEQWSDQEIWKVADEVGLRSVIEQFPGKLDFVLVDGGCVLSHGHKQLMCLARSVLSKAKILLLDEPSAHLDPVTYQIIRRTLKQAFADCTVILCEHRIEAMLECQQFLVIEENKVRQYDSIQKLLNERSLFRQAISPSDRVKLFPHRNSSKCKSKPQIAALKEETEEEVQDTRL

Row | Effect on CFTR activity (human WT CFTR; Example 14, CHO-K1 cells, FIG. 16) | Effect on CFTR activity (human WT CFTR; FRT-YFP cells, FIG. 3) | Effect on ANO1 activity (human WT ANO1; 30 μM) | inhibition at 100 µM (human WT CFTR; FRT-YFP cells, FIG. 3) | inhibition at 30 µM (human WT ANO1; FIG. 3) | Structure (SMILES) | Cytotoxicity (CHO-K1 cells) | Change in survival rate (CHO-K1 cells)
1 | almost no effect | almost no effect | weakly inhibited | – | – | Cc1ccc2[nH]c(C(=O)O)c(CC(=O)N3CCN(c4c(C)cccc4Cl)CC3)c2c1 [YPI-A4948, 3-(2-(4-(2-Chloro-6-methylphenyl)piperazin-1-yl)-2-oxoethyl)-5-methyl-1H-indole-2-carboxylic acid] | no cytotoxicity | around 10%
2 | – | – | – | ~50% | ~80% | Cc1ccc(C)c(N2CCN(C(=O)Cc3c(C(=O)O)[nH]c4ccc(Cl)cc34)CC2)c1 [YPI-H05, 5-chloro-3-(2-(4-(2,5-dimethylphenyl)piperazin-1-yl-)-2-oxoethyl)-1H-indole-2-carboxylic acid] | no cytotoxicity | around 10%
